Experimental data as given in patent EP4458358A1, “PYRIDAZINE COMPOUNDS FOR ANTIFIBROTIC THERAPY” (Tietze Chemical Consulting UG, priority 2023, dated 2024).

What was measured:
Format in all cases: cell-based
HRO159N = assay: ELISA of secreted pro-collagen I alpha 1 (Type I Collagen) from human dermal fibroblasts HRO159N; conditions: 250 µg
Protocol: (§1) Compounds reconstitution and stock solution: Prior to treatment, DMSO was diluted in PMS until 0,1% DMSO was made. Each compound was solved in 0,1% DMSO (3: 2,5 mg/mL, 1: 2.5 mg/mL, 10: 1 mg/mL, 5: 1mg/mL, 7: 0,6 mg/mL, 16: 1 mg/mL 17: 1 mg/mL, 44: 0,6 mg/mL, 36: 1mg/mL.
(§2) Next the different stock solution with 150 µg and 250 µg of each compound per 1 ml culture solution was made by adding the 0,1% DMSO compound solution in the right amount to culture solution (DMEM with 10% FCS and 1% penicillin-streptomycin).
(§3) Three different cell lines were used for the experiments. GM637 is an immortalized cell line originated from human skin fibroblasts, bought in 2001, UKE1 and […] are cell lines originated from human dermal fibroblasts (dog ear) nurtured from patients, between 60 and 80 years old being completely anonymized at the clinic for dermatology, Rostock.
(§4) The cells lines were thawed and were cultured in Dulbeco's modified Eagel's medium (DMEM, Gibcon, USA) supplemented with 10% fetal bovine serum (FBS, Gibco, Germany) and 1% penicillin-streptomycin (PS, Gibco, USA) at 37 °C in a humidified atmosphere with 5% CO2 until a sufficient number of cells were culture in T75 culture bottles. After reaching a confluence of 80% to 90%, the cells were separated using trypsin and counted. Next 100.000 cells were planted in each well of a 6 well plate in replicates, washed and the DMEM solution with 150 µg and 250 µg/ml substance/DMEM and DMEM with no substance as control was added.
(§5) After 48h and after 72h 100 µl supernatant of each well was taken, labelled and frozen at -20° degree Celsius. Prior to perform ELISA the medium was depending on the cell line diluted 1:50 or 1:100 with PBS, otherwise the concentration of collagen fibers was too high to be measured.
(§6) The media containing the secretion of the different human dermal fibroblasts GM637, UKE1, and HRO159N were collected after 48h and 72h treatment. Secretion of pro-collagen 1 was assessed with human pro-collagen I alpha 1 DuoSet ELISA (R&D systems, USA) To prepare the Elisa plate, Human pro-Collagen I a capture antibody was diluted in ELISA plate-coating buffer at 4µg/mL working concentration. 100 µl of diluted Capture antibody was added to 96-well microplates and incubated over night at room temperature. After three times washing with Wash Buffer, microplates were blocked by adding 300 µl of Reagent Diluent for 1 hour at room temperature. To proceed the ELISA Human pro-collagen I α1 Standards were diluted in Reagent Diluent (range between 31,3 pg/mL - 2000 pg/mL) and 100 µl of standards or conditioned mediums were added to designated wells. Microplates were incubated at room temperature for 2 hours. Human Pro-collagen I α1 Detection Antibody was prepared in Reagent Diluent at […] working concentration and 100 µl of diluted Detection Antibody was applied for 2 hours at room temperature after extensive washing. Then, working solution of Streptavidin-HRP with Reagent Diluent was prepared by diluting 1:40 and added into each well. After 20 minutes at room temperature incubation, microplates were washed and applied with 100 µl of Substrate Solution for 20 minutes followed by Stop Solution after washing. Finally, signals were measured at 450 nm absorbance by PHomo Microplate Reader (Autobio, China) The amount of pro-collagen 1 was quantified by extrapolating the signal into a linear range of a pro-collagen 1 standard curve. Screening compounds were typically tested at concentration of 150 and 250 µg/mL. The dose response data for each compound and the different cell lines were obtained by nonlinear regression analysis using Prism 9 software (GraphPad, La Jolla, USA).

GM637 = assay: ELISA of secreted pro-collagen I alpha 1 (Type I Collagen) from human dermal fibroblasts GM637
Protocol: as §1, §2, §3, §4, §5, §6

UKE1 = assay: ELISA of secreted pro-collagen I alpha 1 (Type I Collagen) from human dermal fibroblasts UKE1
Protocol: as §1, §2, §3, §4, §5, §6

MRCVI = assay: ELISA of secreted pro-collagen I alpha 1 (Type I Collagen) from human lung fibroblast MRCVI
Protocol: as §1, §2
As cell line MRCV1 was used, which is an immortalized cell line originated from human lung fibroblast, bought in 2001.
as §4, with “cell line was” for “cells lines were”, “and” for “and were”
as §5
The medium containing the secretion of the human lung fibroblast MRCVI was collected after 48h and 72h treatment. Secretion of pro-collagen 1 was assessed with human pro-collagen I alpha 1 DuoSet ELISA (R&D systems, USA) To prepare the Elisa plate, Human pro-Collagen I a capture antibody was diluted in ELISA plate-coating buffer at 4µg/mL working concentration. 100 µl of diluted Capture antibody was added to 96-well microplates and incubated over night at room temperature. After three times washing with Wash Buffer, microplates were blocked by adding 300 µl of Reagent Diluent for 1 hour at room temperature. To proceed the ELISA Human pro-collagen I α1 Standards were diluted in Reagent Diluent (range between 31,3 pg/mL - 2000 pg/mL) and 100 µl of standards or conditioned mediums were added to designated wells. Microplates were incubated at room temperature for 2 hours. Human Pro-collagen I α1 Detection Antibody was prepared in Reagent Diluent at […] working concentration and 100 µl of diluted Detection Antibody was applied for 2 hours at room temperature after extensive washing. Then, working solution of Streptavidin-HRP with Reagent Diluent was prepared by diluting 1:40 and added into each well. After 20 minutes at room temperature incubation, microplates were washed and applied with 100 µl of Substrate Solution for 20 minutes followed by Stop Solution after washing. Finally, signals were measured at 450 nm absorbance by PHomo Microplate Reader (Autobio, China) The amount of pro-collagen 1 was quantified by extrapolating the signal into a linear range of a pro-collagen 1 standard curve. Screening compounds were typically tested at concentration of 150 and 250 µg/mL. The dose response data for each compound and the different cell lines were obtained by nonlinear regression analysis using Prism 9 software (GraphPad, La Jolla, USA).

Row | Structure (SMILES) | collagen reduction percentage in comparison to the standard (100 %) (HRO159N; 48h) [%] | collagen reduction percentage in comparison to the standard (100 %) (HRO159N; 72 h) [%] | collagen reduction percentage in comparison to the standard (100 %) (GM637; 48h, 150 µg) [%] | collagen reduction percentage in comparison to the standard (100 %) (GM637; 48h, 250 µg) [%] | collagen reduction percentage in comparison to the standard (100 %) (GM637; 72 h, 150 µg) [%] | collagen reduction percentage in comparison to the standard (100 %) (GM637; 72 h, 250 µg) [%] | collagen reduction percentage in comparison to the standard (100 %) (UKE1; 48h, 150 µg) [%] | collagen reduction percentage in comparison to the standard (100 %) (UKE1; 48h, 250 µg) [%] | collagen reduction percentage in comparison to the standard (100 %) (UKE1; 72 h, 150 µg) [%] | collagen reduction percentage in comparison to the standard (100 %) (UKE1; 72 h, 250 µg) [%] | collagen reduction percentage in comparison to the standard (100 %) (MRCVI; 48h, 150 µg) [%] | collagen reduction percentage in comparison to the standard (100 %) (MRCVI; 48h, 250 µg) [%] | collagen reduction percentage in comparison to the standard (100 %) (MRCVI; 72 h, 150 µg) [%] | collagen reduction percentage in comparison to the standard (100 %) (MRCVI; 72 h, 250 µg) [%]
1 | c1ccc2c(c1)cnn1nnnc21 [Compound 1, Tetrazolor5,1-alphthalazine] | 57 | 72 | 127 | 77 | 95 | 92 | 70 | 85 | 74 | 68 | 87 | 78 | 74 | 61
2 | COc1nn2c(C)nnc2c2ccccc12 [Compound 3, 6-Methoxy-3-methyl-1,2,4-triazolo[3,4-a]phthalazine] | 82 | 77 | 89 | 50 | 37 | 32 | 96 | 77 | 71 | 52 | 35 | 11 | 17 | 5
3 | FC(F)(F)c1nnc2c3ccccc3cnn12 [Compound 5, 3-Trifluoromethyl-1,2,4-triazolo[3,4-a]phthalazine] |  |  | 114 | 89 | 70 | 105 | 107 | 99 | 94 | 62 | 97 | 107 | 56 | 108
4 | [2H]C([2H])([2H])c1nnc2c3ccccc3cnn12 [Compound 7, 3-D3-Methyl-1,2,4-triazolo[3,4-a]phthalazine] | 43 | 33 | 101 | 75 | 43 | 30 | 79 | 54 | 44 | 47 | 19 | 9 | 14 | 3
5 | c1ccc2c(c1)cnn1cnnc21 [Compound 10, 1,2,4-Triazolo[3,4-a]phthalazine] |  |  |  |  |  |  |  |  |  |  | 67 | 52 | 48 | 25
6 | Cc1nnc2c3cscc3cnn12 [Compound 16, 3-Methylthieno[3,4-d][1,2,4]triazolo[4,3-b]pyridazine] | 79 | 48 | 79 | 62 | 86 | 55 | 117 | 99 | 82 | 35 | 72 | 43 | 82 | 35
7 | Cc1nnc2c3ccc(C(F)(F)F)cc3cnn12 [Compound 36, 3-Methyl-8-(trifluoromethyl)-[1,2,4]triazolo[3,4-a]phthalazine] |  |  |  |  |  |  |  |  |  |  | 64 | 68 | 36 | 22
8 | CC(C)Oc1nn2nnnc2c2c(Cl)cccc12 [Compound 44, 10-chloro-6-isopropoxytetrazolo[5,1-a]phthalazine] | 72 | 79 | 122 | 89 | 61 | 65 | 122 | 89 | 61 | 65 |  |  |  | 
